# Target: CRBN truncate (318-426) (Homo sapiens (Human), UniProt Q96SW2)
# Assay: Measurement of molecular interactions using surface plasmon resonance (SPR), Biacore T200
# Format: binding
# Settings: 25° C., immobilized CRBN truncate, upper limit of measurement 200 μM
# Method in brief: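 C-terminally Avi-tagged CRBN (318-426) captured on a streptavidin SA chip on a Biacore T200. Running buffer 10 mM HEPES pH 7.5, 150 mM NaCl, 1 mM TCEP, 0.005% Tween 20, 2% DMSO; 60 s contact, 120 s dissociation.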
# CRBN truncate (318-426), sequence (Q96SW2 318-426): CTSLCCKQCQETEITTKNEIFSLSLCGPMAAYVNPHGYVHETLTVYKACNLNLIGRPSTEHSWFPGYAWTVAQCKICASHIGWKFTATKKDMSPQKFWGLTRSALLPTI
row,Kd [µM],Structure (SMILES)
1,< 50,"Cc1sc2c(c1C)C(c1ccc(Cl)cc1)=N[C@@H](CC(=O)NCCCCCCc1ccc(C(=O)N3CCN(C4CCCC(=O)NC4=O)C(=O)C3)cc1Cl)c1nnc(C)n1-2 (stereo partly drawn) [Example 327, N-[6-[2-chloro-4-[4-(2,7-dioxoazepan-3-yl)-3-oxopiperazine-1-carbonyl]phenyl]hexyl]-2-[(9S)-7-(4-chlorophenyl)-4,5,13-trimethyl-3-thia-1,8,11,12-tetraazatricyclo[8.3.0.02,6]trideca-2(6),4,7,10,12-pentaen-9-yl]acetamide]"
2,< 50,"Cc1sc2c(c1C)C(c1ccc(Cl)cc1)=N[C@@H](CC(=O)NCCCCCCCCNC(=O)c1ccc(N3CC4(CC(=O)N(C5CCC(=O)NC5=O)C4=O)C3)nc1)c1nnc(C)n1-2 (stereo partly drawn) [Example 330, N-[8-[[2-[(9S)-7-(4-chlorophenyl)-4,5,13-trimethyl-3-thia-1,8,11,12-tetraazatricyclo[8.3.0.02,6]trideca-2(6),4,7,10,12-pentaen-9-yl]acetyl]amino]octyl]-6-[6-(2,6-dioxopiperidin-3-yl)-5,7-dioxo-2,6-diazaspiro[3.4]octan-2-yl]pyridine-3-carboxamide]"
3,< 50,"Cc1sc2c(c1C)C(c1ccc(Cl)cc1)=N[C@@H](CC(=O)NCCCCCCCCNC(=O)CN1CC3(CC(=O)N(C4CCC(=O)NC4=O)C3=O)C1)c1nnc(C)n1-2 (stereo partly drawn) [Example 331, 2-[(9S)-7-(4-chlorophenyl)-4,5,13-trimethyl-3-thia-1,8,11,12-tetraazatricyclo[8.3.0.02,6]trideca-2(6),4,7,10,12-pentaen-9-yl]-N-[8-[[2-[6-(2,6-dioxopiperidin-3-yl)-5,7-dioxo-2,6-diazaspiro[3.4]octan-2-yl]acetyl]amino]octyl]acetamide]"
4,< 50,"Cc1sc2c(c1C)C(c1ccc(Cl)cc1)=N[C@@H](CC(=O)NCCCCCCCCNC(=O)Cn1c(=O)n(C3CCCC(=O)NC3=O)c3ccccc31)c1nnc(C)n1-2 (stereo partly drawn) [Example 332, 2-[(9S)-7-(4-chlorophenyl)-4,5,13-trimethyl-3-thia-1,8,11,12-tetraazatricyclo[8.3.0.02,6]trideca-2(6),4,7,10,12-pentaen-9-yl]-N-[8-[[2-[3-(2,7-dioxoazepan-3-yl)-2-oxobenzimidazol-1-yl]acetyl]amino]octyl]acetamide]"
5,< 50,"Cc1sc2c(c1C)C(c1ccc(Cl)cc1)=N[C@@H](CC(=O)NCCCCCCCCNC(=O)CCc1cccc3c1n(C)c(=O)n3C1CCCC(=O)NC1=O)c1nnc(C)n1-2 (stereo partly drawn) [Example 333, N-[8-[[2-[(9S)-7-(4-chlorophenyl)-4,5,13-trimethyl-3-thia-1,8,11,12-tetraazatricyclo[8.3.0.02,6]trideca-2(6),4,7,10,12-pentaen-9-yl]acetyl]amino]octyl]-3-[1-(2,7-dioxoazepan-3-yl)-3-methyl-2-oxobenzimidazol-4-yl]propanamide]"
6,< 50,"Cc1sc2c(c1C)C(c1ccc(Cl)cc1)=N[C@@H](CC(=O)NCCCCCCCCNC(=O)CCc1nn(C3CCCC(=O)NC3=O)c3ccccc13)c1nnc(C)n1-2 (stereo partly drawn) [Example 334, N-[8-[[2-[(9S)-7-(4-chlorophenyl)-4,5,13-trimethyl-3-thia-1,8,11,12-tetraazatricyclo[8.3.0.02,6]trideca-2(6),4,7,10,12-pentaen-9-yl]acetyl]amino]octyl]-3-[1-(2,7-dioxoazepan-3-yl)indazol-3-yl]propanamide]"
7,< 50,"Cc1sc2c(c1C)C(c1ccc(Cl)cc1)=N[C@@H](CC(=O)NCCCCCCCCNC(=O)CCc1ccc(-c3nn(C4CCCC(=O)NC4=O)c(=O)n3C)cc1)c1nnc(C)n1-2 (stereo partly drawn) [Example 336, N-[8-[[2-[(9S)-7-(4-chlorophenyl)-4,5,13-trimethyl-3-thia-1,8,11,12-tetraazatricyclo[8.3.0.02,6]trideca-2(6),4,7,10,12-pentaen-9-yl]acetyl]amino]octyl]-3-[4-[1-(2,7-dioxoazepan-3-yl)-4-methyl-5-oxo-1,2,4-triazol-3-yl]phenyl]propanamide]"
8,< 50,"Cc1sc2c(c1C)C(c1ccc(Cl)cc1)=N[C@@H](CC(=O)NCCCCCCCCNC(=O)c1ccc(OC3CCCC(=O)NC3=O)nc1)c1nnc(C)n1-2 (stereo partly drawn) [Example 338, N-[8-[[2-[(9S)-7-(4-chlorophenyl)-4,5,13-trimethyl-3-thia-1,8,11,12-tetraazatricyclo[8.3.0.02,6]trideca-2(6),4,7,10,12-pentaen-9-yl]acetyl]amino]octyl]-6-(2,7-dioxoazepan-3-yl)oxypyridine-3-carboxamide]"
9,< 50,"Cc1sc2c(c1C)C(c1ccc(Cl)cc1)=N[C@@H](CC(=O)NCCCCCCCCNC(=O)COc1ccccc1-c1cn(C3CCCC(=O)NC3=O)nn1)c1nnc(C)n1-2 (stereo partly drawn) [Example 340, 2-[(9S)-7-(4-chlorophenyl)-4,5,13-trimethyl-3-thia-1,8,11,12-tetraazatricyclo[8.3.0.02,6]trideca-2(6),4,7,10,12-pentaen-9-yl]-N-[8-[[2-[2-[1-(2,7-dioxoazepan-3-yl)triazol-4-yl]phenoxy]acetyl]amino]octyl]acetamide]"
10,< 50,"Cc1sc2c(c1C)C(c1ccc(Cl)cc1)=N[C@@H](CC(=O)NCCCCCCCCNC(=O)CCc1ccc3c(c1)oc(=O)n3C1CCCC(=O)NC1=O)c1nnc(C)n1-2 (stereo partly drawn) [Example 341, N-[8-[[2-[(9S)-7-(4-chlorophenyl)-4,5,13-trimethyl-3-thia-1,8,11,12-tetraazatricyclo[8.3.0.02,6]trideca-2(6),4,7,10,12-pentaen-9-yl]acetyl]amino]octyl]-3-[3-(2,7-dioxoazepan-3-yl)-2-oxo-1,3-benzoxazol-6-yl]propanamide]"

# The remaining lines, values behind:
row,Structure (SMILES),Kd [µM]
1,"Cc1sc2c(c1C)C(c1ccc(Cl)cc1)=N[C@@H](CC(=O)NCCCCCCc1ccc(C(=O)N3CCC4(CCCC(=O)NC4=O)C3)cc1Cl)c1nnc(C)n1-2 (stereo partly drawn) [Example 323, N-[6-[2-chloro-4-(6,8-dioxo-2,7-diazaspiro[4.6]undecane-2-carbonyl)phenyl]hexyl]-2-[(9S)-7-(4-chlorophenyl)-4,5,13-trimethyl-3-thia-1,8,11,12-tetraazatricyclo[8.3.0.02,6]trideca-2(6),4,7,10,12-pentaen-9-yl]acetamide]",< 50
2,"Cc1sc2c(c1C)C(c1ccc(Cl)cc1)=N[C@@H](CC(=O)NCCCCCCc1cccc3c(C(=O)N4CCC5(CCCC(=O)NC5=O)C4)cccc13)c1nnc(C)n1-2 (stereo partly drawn) [Example 324, 2-[(9S)-7-(4-chlorophenyl)-4,5,13-trimethyl-3-thia-1,8,11,12-tetraazatricyclo[8.3.0.02,6]trideca-2(6),4,7,10,12-pentaen-9-yl]-N-[6-[5-(6,8-dioxo-2,7-diazaspiro[4.6]undecane-2-carbonyl)naphthalen-1-yl]hexyl]acetamide]",< 50
3,"Cc1sc2c(c1C)C(c1ccc(Cl)cc1)=N[C@@H](CC(=O)NCCCCCCn1ccc3c(C(=O)N4CCC5(CCCC(=O)NC5=O)CC4)cccc31)c1nnc(C)n1-2 [Example 326, 2-[(9S)-7-(4-chlorophenyl)-4,5,13-trimethyl-3-thia-1,8,11,12-tetraazatricyclo[8.3.0.02,6]trideca-2(6),4,7,10,12-pentaen-9-yl]-N-[6-[4-(7,9-dioxo-3,8-diazaspiro[5.6]undecane-3-carbonyl)indol-1-yl]hexyl]acetamide]",< 50
4,"Cc1sc2c(c1C)C(c1ccc(Cl)cc1)=N[C@@H](CC(=O)NCCCCCCCCNC(=O)c1cc3c(N4CCC5(CCCC(=O)NC5=O)C4)ncnc3n1C)c1nnc(C)n1-2 (stereo partly drawn) [Example 328, N-[8-[[2-[(9S)-7-(4-Chlorophenyl)-4,5,13-trimethyl-3-thia-1,8,11,12-tetraazatricyclo[8.3.0.02,6]trideca-2(6),4,7,10,12-pentaen-9-yl]acetyl]amino]octyl]-4-(6,8-dioxo-2,7-diazaspiro[4.6]undecan-2-yl)-7-methylpyrrolo[2,3-d]pyrimidine-6-carboxamide]",< 50
5,"Cc1sc2c(c1C)C(c1ccc(Cl)cc1)=N[C@@H](CC(=O)NCCCCCCCCNC(=O)c1ccc3nc(N4CCC5(CCCC(=O)NC5=O)C4)sc3c1)c1nnc(C)n1-2 (stereo partly drawn) [Example 329, N-[8-[[2-[(9S)-7-(4-chlorophenyl)-4,5,13-trimethyl-3-thia-1,8,11,12-tetraazatricyclo[8.3.0.02,6]trideca-2(6),4,7,10,12-pentaen-9-yl]acetyl]amino]octyl]-2-(6,8-dioxo-2,7-diazaspiro[4.6]undecan-2-yl)-1,3-benzothiazole-6-carboxamide]",< 50
6,"Cc1sc2c(c1C)C(c1ccc(Cl)cc1)=N[C@@H](CC(=O)NCCCCCCCCNC(=O)c1ccc(N3CCC4(CCCC(=O)NC4=O)CC3=O)nc1)c1nnc(C)n1-2 (stereo partly drawn) [Example 335, N-[8-[[2-[(9S)-7-(4-chlorophenyl)-4,5,13-trimethyl-3-thia-1,8,11,12-tetraazatricyclo[8.3.0.02,6]trideca-2(6),4,7,10,12-pentaen-9-yl]acetyl]amino]octyl]-6-(4,7,9-trioxo-3,8-diazaspiro[5.6]dodecan-3-yl)pyridine-3-carboxamide]",≥ 100
7,"Cc1sc2c(c1C)C(c1ccc(Cl)cc1)=N[C@@H](CC(=O)NCCCCCCCCNC(=O)c1ccc3nc(N4CC5(CC(=O)N(C6CCC(=O)NC6=O)C5=O)C4)sc3c1)c1nnc(C)n1-2 (stereo partly drawn) [Example 337, N-[8-[[2-[(9S)-7-(4-chlorophenyl)-4,5,13-trimethyl-3-thia-1,8,11,12-tetraazatricyclo[8.3.0.02,6]trideca-2(6),4,7,10,12-pentaen-9-yl]acetyl]amino]octyl]-2-[6-(2,6-dioxopiperidin-3-yl)-5,7-dioxo-2,6-diazaspiro[3.4]octan-2-yl]-1,3-benzothiazole-6-carboxamide]",< 50
8,"Cc1sc2c(c1C)C(c1ccc(Cl)cc1)=N[C@@H](CC(=O)NCCCCCCCCNC(=O)COc1ccc(C#N)c(N3CCC4(CCCC(=O)NC4=O)C3)c1)c1nnc(C)n1-2 (stereo partly drawn) [Example 339, 2-[(9S)-7-(4-chlorophenyl)-4,5,13-trimethyl-3-thia-1,8,11,12-tetraazatricyclo[8.3.0.02,6]trideca-2(6),4,7,10,12-pentaen-9-yl]-N-[8-[[2-[4-cyano-3-(6,8-dioxo-2,7-diazaspiro[4.6]undecan-2-yl)phenoxy]acetyl]amino]octyl]acetamide]",< 50
